# In publication PMC11062899, “De novo development of small cyclic peptides that are orally bioavailable” (Nature Chemical Biology, 2023):
# Several values for one entry are separate records, joined by “and”; a condition that tells them apart may be missing. Identical values can stand only once. Like-named read-outs stand apart in the source and are kept apart here.
# What was measured:
# [1] = Peptide stability in simulated intestinal fluid (SIF); format: in vitro ADME, porcine; conditions: simulated gi fluid; 8 h, 37 °C, pH 6.8; read-out: Proteolytic stability: SIF (8 h) % remaining
# How it was run: (§1)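 Peptide from a 1 mM DMSO stock was added to fluid pre-warmed at 37 °C. SGF was pH 1.2 NaCl with porcine pepsin (0.32 g per 100 ml), and SIF was pH 6.8 potassium phosphate with porcine pancreatin (1 g per 100 ml). Supernatant peptide was quantified by LC–MS, with residual expressed as T1/T0.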
# porcine pancreatin = test: as above; format: in vitro ADME; conditions: after 8 h vs 0 h (TIC)
# How it was run: as §1
# human α-thrombin = human α-thrombin (Homo sapiens, UniProt P00734); test: Protease inhibition, Ki for human α-thrombin (fluorogenic substrate Z-Gly-Gly-Arg-AMC); format: biochemical; conditions: human alpha thrombin; for Slope normalized to DMSO (proteolytic substrate cleavage over time): replicates R1-R3
# How it was run: (§2)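 Ki values come from Cheng–Prusoff correction of IC50, itself fitted by four-parameter logistic regression of activity versus a no-peptide control. Assays used 2 nM human or 3 nM rat thrombin, 50 μM Z-Gly-Gly-Arg-AMC, 30 min kinetic fluorescence at 25 °C.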
# [2] = Passive artificial membrane permeability (PAMPA)
# porcine pepsin = target: T1, porcine pepsin (Sus scrofa, UniProt P00791); test: Peptide stability in simulated gastric fluid (SGF); format: in vitro ADME
# T1 construct: 0.32 g of porcine pepsin (Sigma-Aldrich, P7125) was dissolved under gentle agitation; purchased Sigma-Aldrich P7125
# How it was run: as §1
# rat α-thrombin = target: T2, rat α-thrombin (Rattus norvegicus, UniProt P18292); test: Protease inhibition, Ki for rat α-thrombin (fluorogenic substrate Z-Gly-Gly-Arg-AMC); format: biochemical; conditions: rat alpha thrombin; for Slope normalized to DMSO (proteolytic substrate cleavage over time): replicates R1-R3
# T2 construct: rat α-thrombin (Molecular Innovations) were used at final concentrations of 2 nM and 3 nM; purchased Molecular Innovations
# How it was run: as §2
# T1 sequence (P00791 60-385): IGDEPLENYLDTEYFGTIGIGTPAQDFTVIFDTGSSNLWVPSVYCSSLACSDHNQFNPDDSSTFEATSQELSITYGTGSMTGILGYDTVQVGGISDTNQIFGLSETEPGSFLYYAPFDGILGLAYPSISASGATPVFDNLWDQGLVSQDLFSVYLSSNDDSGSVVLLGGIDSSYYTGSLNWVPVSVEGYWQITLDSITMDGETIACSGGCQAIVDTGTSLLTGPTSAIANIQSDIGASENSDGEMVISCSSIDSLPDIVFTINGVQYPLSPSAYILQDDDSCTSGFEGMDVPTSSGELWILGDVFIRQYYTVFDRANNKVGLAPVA
structure (smiles),measurement,setting,value
O=C1CSCCC[C@H](NC(=O)c2ccc(Cl)s2)C(=O)N[C@@H](Cc2ccccc2)C(=O)N2CCC[C@@H]2CC(=O)NCCSC1 [compound 37],remaining at 8 h,[1],83 ± 14%
same,"SIF stability, Residual peptide Average",porcine pancreatin; average of R1-R3,83.45
same,"SIF stability, Residual peptide",porcine pancreatin; single replicates R1-R3,93.62 and 67.15 and 89.58
same,Ki,"human α-thrombin; average of R1-R3, read-out: Ki Average, human alpha thrombin inhibition",0.0206 µM
same,Slope normalized to DMSO (proteolytic substrate cleavage over time),human α-thrombin; peptide 1.02E-03 uM,99.8 and 96.2 and 96.4
same,Slope normalized to DMSO (proteolytic substrate cleavage over time),human α-thrombin; peptide 1.04E+00 uM,4.2 and 21.2 and 8.1
same,Slope normalized to DMSO (proteolytic substrate cleavage over time),human α-thrombin; peptide 1.27E-04 uM,99.4 and 96.4 and 91.4
same,Slope normalized to DMSO (proteolytic substrate cleavage over time),human α-thrombin; peptide 1.30E-01 uM,13.4 and 22.3 and 23.1
same,Slope normalized to DMSO (proteolytic substrate cleavage over time),human α-thrombin; peptide 1.59E-05 uM,98.7 and 104.2 and 99.3
same,Slope normalized to DMSO (proteolytic substrate cleavage over time),human α-thrombin; peptide 1.63E-02 uM,59.7 and 68.6 and 65.4
same,Slope normalized to DMSO (proteolytic substrate cleavage over time),human α-thrombin; peptide 1.67E+01 uM,1.8 and 5.4 and -0.5
same,Slope normalized to DMSO (proteolytic substrate cleavage over time),human α-thrombin; peptide 2.03E-03 uM,99.7 and 85.8 and 91.5
same,Slope normalized to DMSO (proteolytic substrate cleavage over time),human α-thrombin; peptide 2.08E+00 uM,2.6 and 15.2 and 7.7
same,Slope normalized to DMSO (proteolytic substrate cleavage over time),human α-thrombin; peptide 2.54E-04 uM,103.4 and 95.2 and 94.0
same,Slope normalized to DMSO (proteolytic substrate cleavage over time),human α-thrombin; peptide 2.60E-01 uM,9.5 and 17.0 and 11.6
same,Slope normalized to DMSO (proteolytic substrate cleavage over time),human α-thrombin; peptide 3.18E-05 uM,100.4 and 94.1 and 100.2
same,Slope normalized to DMSO (proteolytic substrate cleavage over time),human α-thrombin; peptide 3.26E-02 uM,41.8 and 49.6 and 51.1
same,Slope normalized to DMSO (proteolytic substrate cleavage over time),human α-thrombin; peptide 3.33E+01 uM,1.5 and 2.2 and 1.9
same,Slope normalized to DMSO (proteolytic substrate cleavage over time),human α-thrombin; peptide 4.07E-03 uM,80.8 and 82.5 and 73.0
same,Slope normalized to DMSO (proteolytic substrate cleavage over time),human α-thrombin; peptide 4.17E+00 uM,-1.2 and 8.8 and 5.3
same,Slope normalized to DMSO (proteolytic substrate cleavage over time),human α-thrombin; peptide 5.09E-04 uM,101.9 and 94.6 and 97.3
same,Slope normalized to DMSO (proteolytic substrate cleavage over time),human α-thrombin; peptide 5.21E-01 uM,4.7 and 16.3 and 9.9
same,Slope normalized to DMSO (proteolytic substrate cleavage over time),human α-thrombin; peptide 6.36E-05 uM,101.6 and 98.2 and 102.0
same,Slope normalized to DMSO (proteolytic substrate cleavage over time),human α-thrombin; peptide 6.51E-02 uM,27.8 and 39.2 and 31.3
same,Slope normalized to DMSO (proteolytic substrate cleavage over time),human α-thrombin; peptide 6.67E+01 uM,4.9 and 8.1 and 5.5
same,Slope normalized to DMSO (proteolytic substrate cleavage over time),human α-thrombin; peptide 7.95E-06 uM,99.9 and 99.1 (2×)
same,Slope normalized to DMSO (proteolytic substrate cleavage over time),human α-thrombin; peptide 8.14E-03 uM,73.2 and 74.4 and 76.4
same,Slope normalized to DMSO (proteolytic substrate cleavage over time),human α-thrombin; peptide 8.33E+00 uM,-0.9 and 2.2 and 1.0
same,IC50,"human α-thrombin; single replicates R1-R3, read-out: IC50, human alpha thrombin inhibition",0.0218 µM and 0.0296 µM and 0.0288 µM
same,Ki,"human α-thrombin; single replicates R1-R3, read-out: Ki, human alpha thrombin inhibition",16.8 nM (2×) and 22.8 nM (2×) and 22.2 nM (2×)
same,PAMPA permeability: % permeability,"[2]; 50 μM, 12–18 h, acceptor concentration relative to equilibrium",31 ± 10%
same,Papp at 50 μM,"[2]; PAMPA, pH 7.4",3.47 ×10⁻⁶ cm/s
same,Permeability% Average,"[2]; top well sample vs theoretical equilibrium sample (TIC), average of R1-R3",30.8%
same,Permeability%,"[2]; top well sample vs theoretical equilibrium sample (TIC), single replicates R1-R3",38.94% and 34.26% and 19.17%
same,"SGF stability, Residual peptide Average","porcine pepsin; after 8 h vs 0 h (TIC), average of R1-R3",106.20
same,"SGF stability, Residual peptide","porcine pepsin; after 8 h vs 0 h (TIC), single replicates R1-R3",119.66 and 103.22 and 95.72
same,remaining at 8 h,"porcine pepsin; simulated gi fluid, 8 h, 37 °C, pH 1.2, read-out: Proteolytic stability: SGF (8 h) % remaining",106 ± 12%
same,Ki,"rat α-thrombin; average of R1-R3, read-out: Ki Average, rat alpha thrombin inhibition",0.0041 µM
same,Slope normalized to DMSO (proteolytic substrate cleavage over time),rat α-thrombin; peptide 1.02E-03 uM,91.4 and 90.1 and 86.3
same,Slope normalized to DMSO (proteolytic substrate cleavage over time),rat α-thrombin; peptide 1.04E+00 uM,6.1 and 5.3 and 3.6
same,Slope normalized to DMSO (proteolytic substrate cleavage over time),rat α-thrombin; peptide 1.27E-04 uM,98.4 and 98.1 and 97.2
same,Slope normalized to DMSO (proteolytic substrate cleavage over time),rat α-thrombin; peptide 1.30E-01 uM,10.0 and 9.6 and 8.5
same,Slope normalized to DMSO (proteolytic substrate cleavage over time),rat α-thrombin; peptide 1.59E-05 uM,101.7 and 102.0 and 103.9
same,Slope normalized to DMSO (proteolytic substrate cleavage over time),rat α-thrombin; peptide 1.63E-02 uM,36.7 and 39.2 and 35.6
same,Slope normalized to DMSO (proteolytic substrate cleavage over time),rat α-thrombin; peptide 1.67E+01 uM,4.9 and 5.5
same,Slope normalized to DMSO (proteolytic substrate cleavage over time),rat α-thrombin; peptide 2.03E-03 uM,80.6 and 80.8 and 78.9
same,Slope normalized to DMSO (proteolytic substrate cleavage over time),rat α-thrombin; peptide 2.08E+00 uM,5.5 and 5.7 and 3.5
same,Slope normalized to DMSO (proteolytic substrate cleavage over time),rat α-thrombin; peptide 2.54E-04 uM,97.2 and 96.7 and 93.7
same,Slope normalized to DMSO (proteolytic substrate cleavage over time),rat α-thrombin; peptide 2.60E-01 uM,7.6 and 5.4 and 6.9
same,Slope normalized to DMSO (proteolytic substrate cleavage over time),rat α-thrombin; peptide 3.18E-05 uM,100.1 and 100.5 and 98.3
same,Slope normalized to DMSO (proteolytic substrate cleavage over time),rat α-thrombin; peptide 3.26E-02 uM,26.4 and 25.2 and 22.3
same,Slope normalized to DMSO (proteolytic substrate cleavage over time),rat α-thrombin; peptide 3.33E+01 uM,4.6 and 5.2 and 4.1
same,Slope normalized to DMSO (proteolytic substrate cleavage over time),rat α-thrombin; peptide 4.07E-03 uM,63.4 and 62.5 and 70.6
same,Slope normalized to DMSO (proteolytic substrate cleavage over time),rat α-thrombin; peptide 4.17E+00 uM,4.9 and 5.8 and -9.8
same,Slope normalized to DMSO (proteolytic substrate cleavage over time),rat α-thrombin; peptide 5.09E-04 uM,93.0 and 91.4 and 91.1
same,Slope normalized to DMSO (proteolytic substrate cleavage over time),rat α-thrombin; peptide 5.21E-01 uM,5.7 and 6.4 and 5.0
same,Slope normalized to DMSO (proteolytic substrate cleavage over time),rat α-thrombin; peptide 6.36E-05 uM,98.0 and 98.8 and 98.4
same,Slope normalized to DMSO (proteolytic substrate cleavage over time),rat α-thrombin; peptide 6.51E-02 uM,15.4 and 15.1 and 13.7
same,Slope normalized to DMSO (proteolytic substrate cleavage over time),rat α-thrombin; peptide 6.67E+01 uM,5.1 and 5.7 and 2.7
same,Slope normalized to DMSO (proteolytic substrate cleavage over time),rat α-thrombin; peptide 7.95E-06 uM,105.0 and 102.5 and 101.4
same,Slope normalized to DMSO (proteolytic substrate cleavage over time),rat α-thrombin; peptide 8.14E-03 uM,49.4 and 48.0 and 46.0
same,Slope normalized to DMSO (proteolytic substrate cleavage over time),rat α-thrombin; peptide 8.33E+00 uM,5.4 and 5.3 and 3.8
same,IC50,"rat α-thrombin; single replicates R1-R3, read-out: IC50, rat alpha thrombin inhibition",0.00727 µM and 0.00719 µM and 0.00791 µM
same,Ki,"rat α-thrombin; single replicates R1-R3, read-out: Ki, rat alpha thrombin inhibition",4.03 nM (2×) and 3.98 nM (2×) and 4.38 nM (2×)
